Data on 20 compounds can be found in patent US8846951B2 (AbbVie Inc., priority 2009, dated 2014).

Structures are written as SMILES. Where two headings read alike, the source gives them in different places.

As usually defined, the EC50 is the midpoint of the concentration-response curve. The term Emax denotes the maximal effect, on the per cent scale that the assay sets.

One assay deals with T1, 5HT2C receptors (Homo sapiens, UniProt P28335).
T1 sequence (P28335 33-458): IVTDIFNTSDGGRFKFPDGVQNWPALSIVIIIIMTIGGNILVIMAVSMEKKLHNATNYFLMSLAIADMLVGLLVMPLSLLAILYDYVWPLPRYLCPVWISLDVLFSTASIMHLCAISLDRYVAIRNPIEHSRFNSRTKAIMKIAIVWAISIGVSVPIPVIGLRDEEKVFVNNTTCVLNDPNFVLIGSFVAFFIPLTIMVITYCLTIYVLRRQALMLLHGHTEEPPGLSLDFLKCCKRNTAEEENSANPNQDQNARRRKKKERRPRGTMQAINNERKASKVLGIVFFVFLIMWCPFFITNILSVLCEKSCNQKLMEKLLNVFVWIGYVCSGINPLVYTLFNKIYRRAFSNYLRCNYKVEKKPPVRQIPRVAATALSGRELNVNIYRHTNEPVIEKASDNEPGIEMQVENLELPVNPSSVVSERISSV
In words: Human 5-HT2C functional high throughput screening assay in CHO-K1 cells (calcium flux). Set-up: expressed in transfected cells; host or cells: CHO-K1 cells. To be noted: for EC50: CHO-K1 cells, calcium flux; for Emax: CHO-K1, 5-HT2C, maximum functional response as percentage relative to the effect of serotonin. The format is cell-based. In a few lines:
(§1)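 Agonism is measured as intracellular calcium increase in receptor-overexpressing CHO-K1 cells, read by FLIPR at 25 °C. Responses are expressed relative to serotonin, with EC50 and Emax derived from a 4-parameter logistic curve over 6 concentrations starting at 10 μM.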
(In general: Calcium assays in cells follow changes in intracellular calcium, usually with a dye or a luminescent sensor.)

The next assay concerns the target T2, 5HT2B receptors (Homo sapiens, UniProt P41595).
T2 construct: expressed in transfected cells; host or cells: CHO-K1 cells
In words: Human 5-HT2B functional high throughput screening assay in CHO-K1 cells (calcium flux). The format is cell-based. As to conditions: for EC50: CHO-K1 cells, calcium flux; call rule not given here. The essentials: as §1

Where [1] appears, read: 5-HT2C agonist activity, read-out: EC50.
Setting [2] is: 5-HT2B agonist activity, read-out: EC50.
[3] abbreviates: 5-HT2B, maximum functional response as percentage relative to the effect of serotonin.

T2 sequence (P41595 whole entry): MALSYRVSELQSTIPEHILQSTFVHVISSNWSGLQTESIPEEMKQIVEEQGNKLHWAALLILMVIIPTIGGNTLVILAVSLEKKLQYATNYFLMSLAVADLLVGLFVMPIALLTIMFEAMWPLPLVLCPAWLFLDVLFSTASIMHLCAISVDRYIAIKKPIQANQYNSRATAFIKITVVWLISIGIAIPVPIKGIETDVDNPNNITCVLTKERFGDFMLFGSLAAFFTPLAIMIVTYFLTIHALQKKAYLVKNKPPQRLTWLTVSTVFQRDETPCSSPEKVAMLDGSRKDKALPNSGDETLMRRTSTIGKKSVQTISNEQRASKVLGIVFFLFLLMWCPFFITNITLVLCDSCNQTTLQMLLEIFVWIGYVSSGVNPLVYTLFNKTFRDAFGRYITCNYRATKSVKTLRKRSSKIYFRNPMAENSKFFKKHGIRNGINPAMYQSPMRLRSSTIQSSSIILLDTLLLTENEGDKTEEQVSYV

On to `CC(=O)c1cccc(-c2ccc3c(c2)C(=O)NC[C@@H]2CNC[C@@H]32)c1.Cl` (relative stereo) [Example 236, Trans-8-(3-acetylphenyl)-1,2,3,3a,4,5-hexahydrobenzo[c]pyrrolo[3,4-e]azepin-6(10bH)-one hydrochloride], for which the concentration giving a half-maximal response (EC50) on 5HT2C receptors (setting [1]) is 0.3 nM; on 5HT2B receptors (setting [2]), over 10000 nM. The Emax on 5HT2C receptors is over 120%; on 5HT2B receptors (setting [3]), “inactive”.
Consider `O=C1NC[C@@H]2CNC[C@H]2c2cc3c(cc21)CCCC3` (relative stereo) [Example 258, Trans-1,2,3,3a,4,5,8,9,10,11-decahydronaphtho[2,3-c]pyrrolo[3,4-e]azepin-6(12bH)-one], for which the Emax on 5HT2C receptors was 100%; at 5HT2B receptors (setting [3]), “inactive”. Besides, the EC50 at 5HT2C receptors (EC50, 5-HT2C agonist activity) is 10 nM; on 5HT2B receptors (EC50, 5-HT2B agonist activity) it was over 10000 nM.
Turning to `CN1C[C@H]2CNC(=O)c3cc(-c4cccc(C(C)(O)C(F)(F)F)c4)ccc3[C@@H]2C1` (relative stereo) [Example 185, Trans-2-methyl-8-(3-(1,1,1-trifluoro-2-hydroxypropan-2-yl)phenyl)-1,2,3,3a,4,5-hexahydrobenzo[e]pyrrolo[3,4-c]azepin-6(10bH)-one], the EC50 is 1 nM at 5HT2C receptors (setting [1]) and over 10000 nM on 5HT2B receptors (setting [2]). For the same compound, the figures for the Emax at 5HT2C receptors (read-out: Emax) and at 5HT2B receptors (setting [3]) were 120% and “inactive”, respectively.
For `CC(=O)c1cccc(-c2cccc3c2OCC[C@H]2CNC[C@H]32)c1` (relative stereo) [Example 351, 1-{3-[Trans-2,3,3a,4,5,10b-hexahydro-1H-[1]benzoxepino[4,5-c]pyrrol-7-yl]phenyl}ethanone], the EC50 on 5HT2C receptors (setting [1]) was 90 nM; at 5HT2B receptors (setting [2]) it was over 10000 nM. Besides, the maximum response (Emax) is 90% on 5HT2C receptors (read-out: Emax) and “inactive” at 5HT2B receptors (setting [3]).
As for `CC(=O)N1CC[C@@H]2CNC[C@H]2c2ccccc21` (relative stereo) [Example 328, 1-[Trans-2,3,3a,4,5,10b-hexahydropyrrolo[3,4-d][1]benzazepin-6(1H)-yl]ethanone], the EC50 was 900 nM at 5HT2C receptors (setting [1]) and 4000 nM at 5HT2B receptors (setting [2]). The maximal response (Emax) on 5HT2C receptors came to 90%; at 5HT2B receptors (CHO-K1), 60%.
Take `CN1C[C@H]2CN(C)C(=O)c3cc(-c4cccc(CCO)c4)ccc3[C@@H]2C1` (relative stereo) [Example 192, Trans-8-(3-(2-hydroxyethyl)phenyl)-2,5-dimethyl-1,2,3,3a,4,5-hexahydrobenzo[e]pyrrolo[3,4-c]azepin-6(10bH)-one]: the half-maximal effective concentration (EC50) on 5HT2C receptors (setting [1]) is 8 nM; at 5HT2B receptors (setting [2]), over 10000 nM. The Emax at 5HT2C receptors (read-out: Emax) was 120%; on 5HT2B receptors (setting [3]) it was “inactive”.
Regarding `CN1C[C@H]2CNC(=O)c3cc(-c4cccc(C#N)c4)ccc3[C@@H]2C1` (relative stereo) [Example 240, 3-(Trans-2-methyl-6-oxo-1,2,3,3a,4,5,6,10b-octahydrobenzo[c]pyrrolo[3,4-e]azepin-8-yl)benzonitrile], the EC50 at 5HT2C receptors (setting [1]) was 10 nM; on 5HT2B receptors (setting [2]), over 10000 nM. Further, the values for the Emax on 5HT2C receptors (read-out: Emax) and on 5HT2B receptors (setting [3]) were over 120% and “inactive”, respectively.
Take `Fc1ccc(COc2cccc3c2OCC[C@H]2CNC[C@H]32)cc1` (relative stereo) [Example 398, Trans-7-[(4-fluorobenzyl)oxy]-2,3,3a,4,5,10b-hexahydro-1H-[1]benzoxepino[4,5-c]pyrrole]: the Emax at 5HT2C receptors is 90%; at 5HT2B receptors (CHO-K1) it was 100%. The EC50 was 2 nM on 5HT2C receptors (EC50, 5-HT2C agonist activity) and 3 nM on 5HT2B receptors (EC50, 5-HT2B agonist activity).
In the case of `COc1ccc2c(c1)C(=O)N(C)C[C@@H]1CN(C)C[C@@H]21` (relative stereo) [Example 190, Trans-8-methoxy-2,5-dimethyl-1,2,3,3a,4,5-hexahydrobenzo[e]pyrrolo[3,4-c]azepin-6(10bH)-one], the Emax is over 120% at 5HT2C receptors and “inactive” at 5HT2B receptors (setting [3]). In addition, the concentration giving a half-maximal response (EC50) at 5HT2C receptors (EC50, 5-HT2C agonist activity) was 100 nM; at 5HT2B receptors (EC50, 5-HT2B agonist activity) it was over 10000 nM.
Turning to `Clc1cc(Br)c2c(c1)[C@@H]1CNC[C@@H]1CCO2` (relative stereo) [Example 393, Cis-7-bromo-9-chloro-2,3,3a,4,5,10b-hexahydro-1H-[1]benzoxepino[4,5-c]pyrrole], the Emax stood at 60% at 5HT2C receptors and 20% on 5HT2B receptors (CHO-K1). Further, the EC50 was determined as 200 nM at 5HT2C receptors (EC50, 5-HT2C agonist activity) and 100 nM on 5HT2B receptors (EC50, 5-HT2B agonist activity).
On to `CN1C[C@H]2CNC(=O)c3cc(-c4ccc5c(c4)C(=O)CCO5)ccc3[C@@H]2C1` (relative stereo) [Example 390, Trans-2-methyl-8-(4-oxo-3,4-dihydro-2H-chromen-6-yl)-2,3,3a,4,5,10b-hexahydropyrrolo[3,4-d][2]benzazepin-6(1H)-one], for which the EC50 is 8 nM on 5HT2C receptors (setting [1]) and over 10000 nM on 5HT2B receptors (setting [2]). In addition, the Emax is 90% on 5HT2C receptors (read-out: Emax) and “inactive” at 5HT2B receptors (setting [3]).
On to `CN1C[C@H]2CNC(=O)c3cc(-c4ccc5c(c4)CCO5)ccc3[C@@H]2C1` (relative stereo) [Example 321, Trans-8-(2,3-dihydro-1-benzofuran-5-yl)-2-methyl-2,3,3a,4,5,10b-hexahydropyrrolo[3,4-d][2]benzazepin-6(1H)-one], for which the EC50 on 5HT2C receptors (setting [1]) was 3 nM; at 5HT2B receptors (setting [2]) it was over 10000 nM. The results for the Emax at 5HT2C receptors (read-out: Emax) and on 5HT2B receptors (setting [3]) were 90% and “inactive”, respectively.
`O=C1NC[C@@H]2CNC[C@H]2c2ccc(-c3c(F)cccc3F)cc21` (relative stereo) [Example 276, Trans-8-(2,6-difluorophenyl)-1,2,3,3a,4,5-hexahydrobenzo[e]pyrrolo[3,4-c]azepin-6(10bH)-one]: the EC50 is 8 nM on 5HT2C receptors (setting [1]) and over 10000 nM on 5HT2B receptors (setting [2]). For the same compound, the results for the Emax at 5HT2C receptors (read-out: Emax) and at 5HT2B receptors (setting [3]) were over 120% and “inactive”, respectively.
Regarding `c1cc(-c2ccncc2)c2c(c1)[C@H]1CNC[C@@H]1CCO2` (relative stereo) [Example 369, Trans-7-(pyridin-4-yl)-2,3,3a,4,5,10b-hexahydro-1H-[1]benzoxepino[4,5-c]pyrrole], the EC50 on 5HT2C receptors (setting [1]) is 300 nM; at 5HT2B receptors (setting [2]), over 10000 nM. Besides, the results for the Emax on 5HT2C receptors and at 5HT2B receptors (setting [3]) were 90% and “inactive”, respectively.
With `CC(O)c1cccc(-c2ccc3c(c2)C(=O)NC[C@@H]2CN(C)C[C@@H]32)c1` (relative stereo) [Example 238, Trans-8-(3-(1-hydroxyethyl)phenyl)-2-methyl-1,2,3,3a,4,5-hexahydrobenzo[c]pyrrolo[3,4-e]azepin-6(10bH)-one], the EC50 on 5HT2C receptors (setting [1]) was 0.7 nM; at 5HT2B receptors (setting [2]), over 10000 nM. For the same compound, the results for the Emax on 5HT2C receptors (read-out: Emax) and on 5HT2B receptors (setting [3]) were over 120% and “inactive”, respectively.
As for `COc1cccc(-c2ccc3c(c2)C(=O)NC[C@H]2CN(C)C[C@H]32)c1` [Example 160, (3aS,10bS)-8-(3-Methoxyphenyl)-2-methyl-1,2,3,3a,4,5-hexahydrobenzo[e]pyrrolo[3,4-c]azepin-6(10bH)-one], the EC50 is 0.8 nM on 5HT2C receptors (setting [1]) and over 10000 nM at 5HT2B receptors (setting [2]). The Emax was over 120% on 5HT2C receptors (read-out: Emax) and “inactive” on 5HT2B receptors (setting [3]).
Taken in the same sequence, the figures for `CN1C[C@@H]2CNC(=O)c3cc(OCc4cc(F)cc(F)c4)ccc3[C@H]2C1` [Example 208, (3aS,10bS)-8-(3,5-Difluorobenzyloxy)-2-methyl-1,2,3,3a,4,5-hexahydrobenzo[e]pyrrolo[3,4-c]azepin-6(10bH)-one] were 2 nM, over 10000 nM, over 120% and “inactive”.
For `COc1ccc(C(C)C)cc1-c1ccc2c(c1)C(=O)NC[C@@H]1CN(C)C[C@@H]21` (relative stereo) [Example 301, Trans-8-(5-isopropyl-2-methoxyphenyl)-2-methyl-2,3,3a,4,5,10b-hexahydropyrrolo[3,4-d][2]benzazepin-6(1H)-one], the figures for the EC50 on 5HT2C receptors (setting [1]) and on 5HT2B receptors (setting [2]) were 30 nM and over 10000 nM, respectively. The maximum response (Emax) was 105% on 5HT2C receptors (read-out: Emax) and “inactive” at 5HT2B receptors (setting [3]).
As to `COC(=O)c1ccc2c(c1)C(=O)NC[C@@H]1CN(C)C[C@@H]21` (relative stereo) [Example 88, Trans-methyl 2-methyl-6-oxo-1,2,3,3a,4,5,6,10b-octahydrobenzo[e]pyrrolo[3,4-c]azepine-8-carboxylate], the values for the EC50 on 5HT2C receptors (setting [1]) and on 5HT2B receptors (setting [2]) were 500 nM and over 10000 nM, respectively. For the same compound, the Emax was over 120% at 5HT2C receptors (read-out: Emax) and “inactive” at 5HT2B receptors (setting [3]).
For `Nc1ccc2c(c1)C(=O)NC[C@@H]1CNC[C@@H]21` (relative stereo) [Example 144, Trans-8-amino-1,2,3,3a,4,5-hexahydrobenzo[e]pyrrolo[3,4-c]azepin-6(10bH)-one], the Emax is over 120% on 5HT2C receptors and 60% on 5HT2B receptors (CHO-K1). Besides, the EC50 turned out to be 100 nM at 5HT2C receptors (EC50, 5-HT2C agonist activity) and 1000 nM at 5HT2B receptors (EC50, 5-HT2B agonist activity).
